Data published in PMC10349806 (Nature Communications, 2023).
“And” between values parts separate entries of the source, which are not always exact repeats. Identical values can stand only once.

Key:
PfCRT variant E278A = target: T1, PfCRT variant E278A (Plasmodium falciparum, UniProt Q9N623, A220S/E278A/I356T/K76T/M74I/N326S/N75E/Q271E/R371I); assay: CQ uptake assay, oocytes expressing E278A; format: cell-based
T1 sequence (Q9N623 1-424 M74I/N75E/K76T/A220S/Q271E/E278A/N326S/I356T/R371I): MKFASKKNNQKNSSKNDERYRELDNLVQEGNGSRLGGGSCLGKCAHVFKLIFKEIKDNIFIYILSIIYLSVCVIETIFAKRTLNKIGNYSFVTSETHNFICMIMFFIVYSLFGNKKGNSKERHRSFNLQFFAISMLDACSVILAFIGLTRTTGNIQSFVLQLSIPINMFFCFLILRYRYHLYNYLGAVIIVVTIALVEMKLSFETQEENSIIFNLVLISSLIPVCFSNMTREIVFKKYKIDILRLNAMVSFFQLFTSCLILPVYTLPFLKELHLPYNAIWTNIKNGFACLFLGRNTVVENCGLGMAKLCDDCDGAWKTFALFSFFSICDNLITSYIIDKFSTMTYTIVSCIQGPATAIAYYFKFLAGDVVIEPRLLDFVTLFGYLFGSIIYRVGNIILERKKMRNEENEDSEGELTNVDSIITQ
Experimental: (§1) Site-directed mutagenesis of PfCRT^Dd2 was performed as described using the megaprimer method with overlap extension[21],[54]. The primer pairs used are listed in Supplementary Table 6. Please note that a codon-optimized and oocyte-adapted version of PfCRT^Dd2 was used[22] (Supplementary Fig. 16). The resulting DNA fragment was cloned into the SP64T expression vector and verified by sequencing.
(§2) Oocytes were obtained as described previously. Briefly, adult (>2 years old) female X. laevis frogs (NASCO) were anesthetized in a cooled solution of ethyl 3-amino benzoate methanesulfonate (0.1%, w/v), followed by a surgical removal of parts of the ovary. The ovary lobes were carefully dissected and small pieces of oocytes were incubated in Ca^2+-free ND96 buffer (96 mM NaCl, 2 mM KCl, 1 mM MgCl2 buffered with 5 mM HEPES/NaOH, pH 7.5) supplemented with collagenase D (0.1%, w/v; Roche), BSA (0.5%, w/v), and 9 mm Na2HPO4 at 18 °C for 14-16 h while gentle shaking. After incubation, the oocytes were carefully washed several times with ND96 buffer (96 mM NaCl, 2 mM KCl, 1.8 mM CaCl2, 1 mM MgCl2 buffered with 5 mM HEPES/NaOH, pH 7.5) supplemented with 100 mg l^−1 gentamycin). Defolliculated and healthy-looking stage V-VI oocytes were manually selected for RNA microinjection. The RNA was generated as following: The codon-optimized sequences of PfCRT variants were cloned into the pSP64T expression vector. After vector linearization using the restriction endonucleases BamHI or SalI (New England Biolabs), transcription was performed using the in vitro SP6 mMessage mMachine Kit (Ambion)[34]. The obtained RNA was kept at −80 °C and diluted with nuclease-free water to a concentration of 0.6 μg μl^−1. Precision-bore glass capillary tubes (3.5-inch glass capillaries; Drummond Scientific Co.) were pulled on a vertical puller (P-87 Flaming/Brown micropipette puller, Sutter Instrument Co.), graduated, and placed on a microinjector (Nanoject II Auto-Nanoliter Injector, Drummond Scientific Co.). 50 nl of nuclease-free water alone (control oocytes) or 50 nl of 0.6 μg μl^−1 RNA were injected under stereomicroscopic control. Injected oocytes were incubated for 46–72 h at 18 °C with twice-daily buffer changes before usage in experiments.
Drug uptake assays were performed as described previously[21],[22],[24],[34]. […] The direction of radio-labeled drug transport is here from the mostly acidic extracellular solution (pH 4.5 or 6.0, as indicated) into the oocyte cytosol (pH ∼ 7.2), which corresponds to the efflux of drug from the acidic digestive vacuole (pH 5.2) into the parasite cytoplasm (pH 7.2). The topology of PfCRT in the oolemma is such that both the N- and C-terminus face the extracellular milieu[3],[22]. In the parasite, the N- and C-terminus face the lumen of the digestive vacuole. CQ uptake kinetics were performed by incubating oocytes in ND96 buffer adjusted to a pH of 4.5, 5.0, 5.5, or 6.0 and supplemented with 50 nM [^3H]CQ and one of 7 different CQ concentrations (10 µM, 50 µM, 100 µM, 200 µM, 300 µM, 400 µM, 500 µM CQ). The reaction was stopped at the 60 min time point, which is in the linear uptake range[22],[34] (Supplementary Fig. 17). […] The radioactivity of each sample was measured using a liquid scintillation analyzer Tri-Carb 4910 TR (PerkinElmer). Oocytes that were injected with water instead of RNA were analyzed in parallel, representing the uptake of a drug by diffusion and/or endogenous permeation pathways. […]

PfCRT variant E207D = assay: CQ uptake assay, oocytes expressing E207D; format: cell-based, Plasmodium falciparum
Experimental: as §1, §2
(§3) Drug uptake assays were performed as described previously[21],[22],[24],[34]. […] The direction of radio-labeled drug transport is here from the mostly acidic extracellular solution (pH 4.5 or 6.0, as indicated) into the oocyte cytosol (pH ∼ 7.2), which corresponds to the efflux of drug from the acidic digestive vacuole (pH 5.2) into the parasite cytoplasm (pH 7.2). The topology of PfCRT in the oolemma is such that both the N- and C-terminus face the extracellular milieu[3],[22]. In the parasite, the N- and C-terminus face the lumen of the digestive vacuole. CQ uptake kinetics were performed by incubating oocytes in ND96 buffer adjusted to a pH of 4.5, 5.0, 5.5, or 6.0 and supplemented with 50 nM [^3H]CQ and one of 7 different CQ concentrations (10 µM, 50 µM, 100 µM, 200 µM, 300 µM, 400 µM, 500 µM CQ). The reaction was stopped at the 60 min time point, which is in the linear uptake range[22],[34] (Supplementary Fig. 17). For determination of the amount of drug uptake for each oocyte, the reaction medium was removed and the oocytes were washed three times with 2 ml of ice-cold ND96 buffer. Each oocyte was individually transferred to a scintillation vial containing 5% sodium dodecyl sulfate (200 μl) for lysis. The radioactivity of each sample was measured using a liquid scintillation analyzer Tri-Carb 4910 TR (PerkinElmer). Oocytes that were injected with water instead of RNA were analyzed in parallel, representing the uptake of a drug by diffusion and/or endogenous permeation pathways. The resulting value represents the “background“ level of drug accumulation in oocytes (in-depth discussion in[22]). […]

PfCRT variant E207F = assay: CQ uptake assay, oocytes expressing E207F; format: cell-based, Plasmodium falciparum
Experimental: as §1, §2, §3

PfCRT^Dd2 = PfCRT^Dd2 (Plasmodium falciparum, UniProt Q9N623, A220S/I356T/K76T/M74I/N326S/N75E/Q271E/R371I); details: cited from earlier work
[1] = E278A, 50 µM CQ, 1 h, mean ± SEM
[2] = E207D, 50 µM CQ, 1 h, mean ± SEM
[3] = pH 4.5, individual replicates, Fig 6b
[4] = pH 6.0, individual replicates, Fig 6b
[5] = ratio of activity pH 4.5 / pH 6.0
[6] = E207F, 50 µM CQ, 1 h, mean ± SEM

Chain of PfCRT^Dd2 (Q9N623 whole entry A220S/I356T/K76T/M74I/N326S/N75E/Q271E/R371I): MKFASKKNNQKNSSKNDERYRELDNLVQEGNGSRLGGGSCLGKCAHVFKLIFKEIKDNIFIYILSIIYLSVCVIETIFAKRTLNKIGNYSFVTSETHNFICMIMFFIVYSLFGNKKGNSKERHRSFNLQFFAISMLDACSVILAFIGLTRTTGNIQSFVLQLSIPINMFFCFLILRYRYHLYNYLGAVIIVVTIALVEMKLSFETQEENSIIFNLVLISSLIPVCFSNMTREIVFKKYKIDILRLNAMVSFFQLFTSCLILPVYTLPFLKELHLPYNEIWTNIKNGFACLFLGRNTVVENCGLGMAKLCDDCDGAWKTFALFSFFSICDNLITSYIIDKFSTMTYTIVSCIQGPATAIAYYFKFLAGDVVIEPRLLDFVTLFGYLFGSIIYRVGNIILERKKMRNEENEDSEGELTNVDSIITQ

CCN(CC)CCCC(C)Nc1ccnc2cc(Cl)ccc12 (stereo not shown) [CQ, chloroquine]
Activity at pH 4.5 (PfCRT variant E278A; [1]): 1.17 ± 0.07 pmol h-1 oocyte-1 | Activity at pH 6.0 (PfCRT variant E278A; [1]): 2.21 ± 0.24 pmol h-1 oocyte-1 | R-value (PfCRT variant E278A; E278A, CQ transport at pH 4.5 / pH 6.0): 0.56 ± 0.10 | E278A transport activity pH 4.5 (PfCRT variant E278A; pH 4.5, single replicates, Fig 1d left): 1.19 pmol oocyte-1 h-1 and 1.00 pmol oocyte-1 h-1 and 1.31 pmol oocyte-1 h-1 | E278A transport activity pH 6.0 (PfCRT variant E278A; pH 6.0, single replicates, Fig 1d left): 2.40 pmol oocyte-1 h-1 and 2.59 pmol oocyte-1 h-1 and 1.63 pmol oocyte-1 h-1 | Activity at pH 4.5 (PfCRT variant E207D; [2]): 1.82 ± 0.06 pmol h-1 oocyte-1 | Activity at pH 6.0 (PfCRT variant E207D; [2]): 5.13 ± 0.37 pmol h-1 oocyte-1 | R-value (PfCRT variant E207D; E207D, CQ transport at pH 4.5 / pH 6.0): 0.36 ± 0.05 | E207D transport activity pH 4.5 (PfCRT variant E207D; [3]): 1.93 pmol oocyte-1 h-1 and 1.78 pmol oocyte-1 h-1 and 1.98 pmol oocyte-1 h-1 and 1.89 pmol oocyte-1 h-1 and 1.82 pmol oocyte-1 h-1 and 1.51 pmol oocyte-1 h-1 | E207D transport activity pH 6.0 (PfCRT variant E207D; [4]): 4.59 pmol oocyte-1 h-1 and 4.25 pmol oocyte-1 h-1 and 6.63 pmol oocyte-1 h-1 and 6.08 pmol oocyte-1 h-1 and 4.42 pmol oocyte-1 h-1 and 4.78 pmol oocyte-1 h-1 | E207D R-value (PfCRT variant E207D; [5]): 0.42 and 0.30 and 0.31 and 0.41 and 0.32 | Activity at pH 4.5 (PfCRT variant E207F; [6]): 2.67 ± 0.27 pmol h-1 oocyte-1 | Activity at pH 6.0 (PfCRT variant E207F; [6]): 3.27 ± 0.42 pmol h-1 oocyte-1 | R-value (PfCRT variant E207F; E207F, CQ transport at pH 4.5 / pH 6.0): 0.84 ± 0.09 | E207F transport activity pH 4.5 (PfCRT variant E207F; [3]): 3.33 pmol oocyte-1 h-1 and 3.06 pmol oocyte-1 h-1 and 2.01 pmol oocyte-1 h-1 and 2.27 pmol oocyte-1 h-1 | E207F transport activity pH 6.0 (PfCRT variant E207F; [4]): 2.89 pmol oocyte-1 h-1 and 4.68 pmol oocyte-1 h-1 and 2.46 pmol oocyte-1 h-1 and 3.03 pmol oocyte-1 h-1 | E207F R-value (PfCRT variant E207F; [5]): 1.15 and 0.65 and 0.82 and 0.75 | share of full transport velocity (PfCRT^Dd2; at the pH of the digestive vacuole of 5.2): 60% | pH of maximal CQ transport activity (PfCRT^Dd2): ~ 6.0 pH
